This note sets out measurements from publication PMC9675441 (JCI Insight, 2022).

SMILES strings stand for the structures.

The target of the assay is T1, ISG20L2 (interferon-stimulated 20 kDa exonuclease-like 2) (Homo sapiens, UniProt Q9H9L3).
T1 construct: recombinant human ISG20L2 (rISG)
T1 sequence (Q9H9L3 1-353): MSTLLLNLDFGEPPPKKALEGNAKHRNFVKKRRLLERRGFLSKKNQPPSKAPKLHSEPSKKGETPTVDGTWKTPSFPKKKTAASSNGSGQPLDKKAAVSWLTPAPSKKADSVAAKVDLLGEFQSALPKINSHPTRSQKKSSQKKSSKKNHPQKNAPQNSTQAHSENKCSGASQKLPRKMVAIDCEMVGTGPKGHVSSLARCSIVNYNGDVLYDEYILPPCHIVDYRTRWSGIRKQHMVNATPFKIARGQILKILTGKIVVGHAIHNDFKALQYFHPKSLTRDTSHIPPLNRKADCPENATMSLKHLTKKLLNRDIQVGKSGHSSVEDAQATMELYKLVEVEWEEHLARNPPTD
As to the kind of experiment: SPR (Biacore X100, ISG20L2 immobilized on CM5 chip). Type of assay: binding.

The compound `CC(C)C[C@H](NC(=O)[C@H](Cc1ccccc1)NC(=O)c1cnccn1)B(O)O` [BTZ, bortezomib] registered a Kd of 26.7 µM.

Compound `CC(C)C[C@H](NC(=O)[C@H](CCc1ccccc1)NC(=O)CN1CCOCC1)C(=O)N[C@@H](Cc1ccccc1)C(=O)N[C@@H](CC(C)C)C(=O)[C@@]1(C)CO1` [CFZ, carfilzomib] had a Kd of 8.71 µM.
